According to paper PMC9525761, “Cytotoxicity and Genotoxicity of Biogenic Silver Nanoparticles in A549 and BEAS-2B Cell Lines” (Bioinorganic Chemistry and Applications, 2022):
Where two headings read alike, the source gives them in different places.

Columns and labels:
Assay type in all cases: cell-based, human
A549 cells [1] = assay: Comet Assay DNA damage, A549 cells; design: key to DNA damage class (comet visual scoring, Classes 0–4): Class 4: Classes 0–4 to be used for visual scoring. The increased number of classes represents the increase in DNA damage severity; Class 3: Classes 0–4 to be used for visual scoring. The increased number of classes represents the increase in DNA damage severity; Class 2: Classes 0–4 to be used for visual scoring. The increased number of classes represents the increase in DNA damage severity; conditions: for DNA damage class (comet visual scoring, Classes 0–4): IC50 for 24 h (H2O2: 100 μM); for % DNA in tail / Olive tail moment / Tail length (px): IC50 for 24 h (H2O2: 100 μM, 20 minutes)
Procedure: (§1) The Comet Assay® kit (Trevigen, Inc, USA) was used to perform DNA damage activity analysis. […] After being detached by Accutase (BD™Bioscience, USA), the cells were collected and washed with ice-cold PBS. […] The cells were then lysed in the lysis solution at 4°C for 30 minutes. Then, the cells were kept in an alkaline unwinding solution at room temperature for 20 minutes to allow the DNA to unwind. The test was immediately followed by electrophoresis, performed at 21 V and 300 mA for 30 minutes. Slides were washed in 70% ethanol and water and stained with SYBR® gold nucleic acid gel stain (Invitrogen, Thermo Fisher Scientific, USA) before visualisation under the Olympus IX71 inverted fluorescence microscope (Olympus, Tokyo, Japan). A total of 50 cells were randomly selected and captured per sample at 100× magnification and analysed using the Open Comet Image J available at https:/www.cometbio.org/. Tail length, percentage of tail DNA, and Olive Tail Moment (OTM) were calculated for DNA damage assessment.

BEAS-2B cells [2] = assay: Comet Assay DNA damage, BEAS-2B cells; design: key to DNA damage class (comet visual scoring, Classes 0–4): Class 4: Classes 0–4 to be used for visual scoring. The increased number of classes represents the increase in DNA damage severity; Class 3: Classes 0–4 to be used for visual scoring. The increased number of classes represents the increase in DNA damage severity; Class 2: Classes 0–4 to be used for visual scoring. The increased number of classes represents the increase in DNA damage severity; conditions: for DNA damage class (comet visual scoring, Classes 0–4): IC50 for 24 h (H2O2: 100 μM); for % DNA in tail / Olive tail moment / Tail length (px): IC50 for 24 h (H2O2: 100 μM, 20 minutes)
Procedure: as §1

BEAS-2B cells [3] = assay: MTT cytotoxicity assay, BEAS-2B cells; conditions: for IC50: table prints none, read-out: average IC50, BEAS-2B cells (mean ± SD)
BEAS-2B cells [4] = assay: Apoptosis by DAPI and AO/PI double staining, BEAS-2B cells; conditions: IC50, 24 hours
Procedure: (§2) DAPI staining is used to assess apoptosis-related morphological changes such as nuclear fragmentation or condensation. […] AO stains both live and dead cells, whereas PI stains only the dead cells. […] Following incubation, the cells were washed with PBS and then fixed with 1 mL of 4% paraformaldehyde (Sigma-Aldrich, St. Louis, Missouri, USA) and cold 70% ethanol for 10 minutes at room temperature. Then, the cells were stained with a 1 : 1 ratio of 10 µg/mL of DAPI (Nacalai, Tesque chemical, Kyoto, Japan) and 10 μg/mL acridine orange/propidium iodide (Sigma-Aldrich, St. Louis, Missouri, USA) and incubated for 30 minutes in the dark. An Olympus IX71 inverted fluorescence microscope (Olympus, Tokyo, Japan) was used to observe and record the morphology of the cells.

BEAS-2B cells [5] = assay: Intracellular ROS, CM-H2DCFDA assay, BEAS-2B cells; conditions: treated with IC50 for 24 hours, control (untreated cells) set to 1
Procedure: (§3) After exposure, cells were washed with PBS and loaded with 2.5 μM of CM-H2DCFDA in phenol red and FBS-free media in the dark for 30 minutes at 37°C. Subsequently, the reaction mixture was aspirated; cells were washed with fresh culture media and replaced with 100 μL of culture media. The DCF fluorescence intensity was measured at 485 nm excitation and 520 nm emission using a FLUOstar Omega fluorescence plate reader (BMG Labtech, Ortenberg, Germany). Results are presented as mean fold change ± standard deviation of three independent experiments.

A549 cells [6] = assay: Intracellular ROS, CM-H2DCFDA assay, A549 cells; conditions: A549, treated with IC50 for 24 hours; control (untreated cells) set to 1
Procedure: as §3

A549 cells [7] = assay: Apoptosis by DAPI and AO/PI double staining, A549 cells; conditions: A549, IC50, 24 hours
Procedure: as §2

A549 cells [8] = assay: MTT cytotoxicity assay, A549 cells (with selectivity index); conditions: for Selectivity index (SI): IC50 normal cells (BEAS-2B) / IC50 cancer cells (A549); for IC50: table prints none, read-out: average IC50, A549 cells (mean ± SD)
Procedure: Both A549 and BEAS-2B cells were originally purchased from the American Type Culture Collection (ATCC, USA). Both cells were cultured in Dulbecco's Modified Eagle's Medium (DMEM: Gibco, USA) and 1 : 1 mixture of DMEM and Ham's F-12 (DMEM-F12; Gibco, USA) medium with phenol red and supplemented with 10% fetal bovine serum (FBS; Gibco, USA), 0.1% (v/v) penicillin-streptomycin, and 2 mM L-glutamine (PenStrep; Gibco, USA). The cell lines were maintained in a humidified environment at 37°C with 5% CO2.
The culture medium alone (without cells) was included as a blank for this test. A549 and BEAS-2B cells were treated with Cisplatin as a positive control. A total of 10 μL of MTT solution (5 mg/mL) was applied to each well at about 24 to 72 hours after treatment and was further incubated for 4 hours in the dark at 37°C with 5% CO2. Upon incubation, the mixture solution was aspirated, and 100 μL of dimethyl sulfoxide (DMSO) (Fisher Scientific, USA) was added to solubilise the purple formazan. The optical density (O.D.) of each sample was measured at a 570 nm wavelength using a microplate reader (BioTek Instruments, Inc, USA). The percentage (%) of cell viability was determined using the following formula [37]:(1) Cell viability%=O.D.treatment–O.D.blank/O.D.untreated cell–O.D.blank×100%.
Based on the measured cell viability (%), a graph was created to display the dose-response curves for each cell line. […] The data was expressed as a mean and standard deviation with each experiment consisting of triplicates. Statistical differences between untreated cells and treated cells were determined using Student's t-test (IBM SPSS Statistics 27).

| SMILES | DNA damage class (comet visual scoring, Classes 0–4) (A549 cells [1]) | % DNA in tail (A549 cells [1]) [%] | Olive tail moment (A549 cells [1]) | Tail length (px) (A549 cells [1]) | DNA damage class (comet visual scoring, Classes 0–4) (BEAS-2B cells [2]) | % DNA in tail (BEAS-2B cells [2]) [%] | Olive tail moment (BEAS-2B cells [2]) | Tail length (px) (BEAS-2B cells [2]) | IC50 (BEAS-2B cells [3]; 24 h) [µM] | IC50 (BEAS-2B cells [3]; 48 h) [µM] | IC50 (BEAS-2B cells [3]; 72 h) [µM] | other results |
| --- | --- | --- | --- | --- | --- | --- | --- | --- | --- | --- | --- | --- |
| OO [H2O2] | Class 2 | 35.64 ± 9.31 | 9.51 ± 3.49 | 25.3 ± 6.96 | Class 4 | 85.86 ± 2.71 | 27.63 ± 4.6 | 53.91 ± 9.95 | – | – | – | – |
| O=[N+]([O-])[O-].[Ag+] [AgNO3, silver nitrate] | – | – | – | – | – | – | – | – | 16 ± 0.03 | 15 ± 0.02 | 14 ± 0.02 | concentrations decreasing proliferation of BEAS-2B cells to nearly 50% (BEAS-2B cells [3]; after 24 to 74 hours of treatment (so in the source)): 20 to 100 µM |
| N.N.[Cl][Pt][Cl] [Cisplatin] | Class 3 | 48.26 ± 4.54 | 28.81 ± 4.94 | 73.83 ± 8.9 | Class 4 | 63.79 ± 3.01 | 78.49 ± 0.8 | 160.07 ± 3.3 | 69.2 ± 1.75 | 31.6 ± 3.27 | 18.84 ± 0.13 | mode of cell death (DAPI, AO/PI staining), in words (BEAS-2B cells [4]): induce apoptosis; ROS level, DCF fold (BEAS-2B cells [5]): 1.23 ± 0.01 fold change; ROS level, DCF fold (A549 cells [6]): 1.16 ± 0.04 fold change; concentration at which BEAS-2B cells were significantly dead (BEAS-2B cells [3]; all three time points (24, 48, 72 h)): 65 µM; mode of cell death (DAPI, AO/PI staining), in words (A549 cells [7]): induce apoptosis; Selectivity index (SI) (A549 cells [8]; 24 h): 1.32; Selectivity index (SI) (A549 cells [8]; 48 h): 1.66; Selectivity index (SI) (A549 cells [8]; 72 h): 1.08; IC50 (A549 cells [8]; MTT, 24 h): 52.5 ± 7.92 µM; IC50 (A549 cells [8]; MTT, 48 h): 19.1 ± 3.19 µM; IC50 (A549 cells [8]; MTT, 72 h): 17.5 ± 0.6 µM; concentration at which A549 cells were significantly dead (A549 cells [8]; MTT, all three time points (24, 48, 72 h)): 50 µM |
